In paper PMC3365614 (Cancer Chemotherapy and Pharmacology, 2012):

What was measured:
[1] = for Plasma concentration, effect of flavopiridol: immediately prior to (24 h) vs end of 1-hr flavopiridol infusion (25 h) on day 2
[2] = type: in vivo, human
ABCG2 = conditions: cited from earlier work
human serum proteins = conditions: cited from earlier work
[3] = 1-hr infusions of flavopiridol as a single agent; cited from earlier work

| Plasma concentration, effect of flavopiridol [1] | AUC of the metabolite CGP74588, effect of flavopiridol ([1]; presence vs absence of flavopiridol, P=0.84) | AUC of imatinib, lower in the presence of flavopiridol ([1]; on average, presence vs absence of flavopiridol, p=0.022) [%] | Structure (SMILES) | mean flavopiridol clearance (per body surface area) ([2]; 1-hr infusions of 30, 45 or 60 mg/m^2 with 400 or 600 mg/day imatinib, cycle 1) [L/hr/m^2] | clearance ([2]; human, plasma, intravenous) [mL/min] | half-life ([2]; human, plasma, intravenous) [h] | ABCG2 substrate status (ABCG2) | binding to human serum proteins (human serum proteins) | flavopiridol clearance, previously reported [3] [L/hr/m^2] | ABCG2 inhibition (ABCG2) |
| --- | --- | --- | --- | --- | --- | --- | --- | --- | --- | --- |
| increase | not significantly affected | – | Cc1ccc(NC(=O)c2ccc(CN3CCNCC3)cc2)cc1Nc1nccc(-c2cccnc2)n1 [CGP74588] | – | – | – | – | – | – | – |
| – | – | – | CN1CC[C@H](c2c(O)cc(O)c3c(=O)cc(-c4ccccc4Cl)oc23)[C@H](O)C1 [flavopiridol] | 13.2 | 427 | 2.33 ± 0.97 | substrate | bind tightly | 13.8 | – |
| did not affect | – | 21 | Cc1ccc(NC(=O)c2ccc(CN3CCN(C)CC3)cc2)cc1Nc1nccc(-c2cccnc2)n1 [imatinib] | – | – | – | – | – | – | inhibitor |
